Changes are numbered by the printed parent chain.
Tests used:
GlyT2 Y430L mutant = molecular target: T1, GlyT2 Y430L mutant (Homo sapiens, UniProt Q9Y345, Y430L); assay: Inhibitor washout time course (reversibility); type: cell-based; parameters: expressed in transfected cells; host or cells: Xenopus laevis oocytes injected with mutant RNA (pOTV vector)
T1 sequence (Q9Y345 1-797 Y430L): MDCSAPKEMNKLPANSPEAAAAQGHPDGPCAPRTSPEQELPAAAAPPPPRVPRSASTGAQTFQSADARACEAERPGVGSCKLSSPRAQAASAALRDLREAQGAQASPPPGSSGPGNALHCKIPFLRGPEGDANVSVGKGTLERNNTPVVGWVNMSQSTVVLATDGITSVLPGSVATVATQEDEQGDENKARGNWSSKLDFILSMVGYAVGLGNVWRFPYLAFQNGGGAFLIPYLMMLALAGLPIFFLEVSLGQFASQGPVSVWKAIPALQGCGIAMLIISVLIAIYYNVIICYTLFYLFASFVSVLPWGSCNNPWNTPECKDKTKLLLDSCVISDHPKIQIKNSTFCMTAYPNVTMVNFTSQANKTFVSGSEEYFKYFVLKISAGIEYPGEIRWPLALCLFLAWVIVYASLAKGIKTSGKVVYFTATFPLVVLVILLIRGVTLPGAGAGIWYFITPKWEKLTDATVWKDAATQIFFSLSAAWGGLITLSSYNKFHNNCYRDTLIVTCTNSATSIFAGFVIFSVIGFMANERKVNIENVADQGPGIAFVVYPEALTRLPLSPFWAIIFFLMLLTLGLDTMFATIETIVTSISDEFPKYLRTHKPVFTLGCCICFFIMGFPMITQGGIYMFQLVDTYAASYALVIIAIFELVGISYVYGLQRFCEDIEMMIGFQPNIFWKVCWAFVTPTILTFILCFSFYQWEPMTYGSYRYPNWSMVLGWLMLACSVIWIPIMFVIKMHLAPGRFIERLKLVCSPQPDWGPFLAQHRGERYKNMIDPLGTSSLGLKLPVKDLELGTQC
Method: (§1) Reversibility of GlyT2 inhibitors was determined by applying an EC50 concentration of glycine followed by co-application of the inhibitor at an IC50 concentration once a stable current had been achieved. Inhibitors were applied for 4 min as this was sufficient time to produce substantial inhibition for each compound and allowed for their direct comparison. At the conclusion of 4 min (time 0), ND96 buffer was perfused through the recording chamber to wash the oocyte. […] Transport currents were normalized to glycine currents in the absence of inhibitor and converted to % recovery values via Y=It−It=0/Imax−It=0, where Y is % recovery, I is current in nA, Imax is the maximal current produced by the glycine EC50, and t is time in minutes. Washout kinetics were then determined by fitting % recovery values to the first-order rate equation: Y=(Y0−Plateau).e^(−Kt)+Plateau, where Y is the % recovery, Y0 is the point, which crosses the Y-axis (constrained to 0) and increases to the plateau (constrained to between 0 and 100), K is the rate constant (1/t), and t is time in minutes. […] Because of the slowly […] nature of the inhibitors, washout time courses involving cyclodextrin treatment could not be performed on the same cell. […] As these experiments could not occur on the same cell, differences in half-life and maximal recovery were analysed via an unpaired two-tailed t test.

GlyT2 T512A mutant = molecular target: T2, GlyT2 T512A mutant (Homo sapiens, UniProt Q9Y345, T512A); assay: Inhibitor washout time course (reversibility); type: cell-based; parameters: expressed in transfected cells; host or cells: Xenopus laevis oocytes injected with mutant RNA (pOTV vector); details: for Half-life (transport current recovery) / Recovery at 30 Min: washout after 4 min IC50 concentration
T2 sequence (Q9Y345 1-797 T512A): T1 sequence (Q9Y345 1-797 Y430L) with L430Y, T512A
Method: as §1

[1] = washout after 4 min IC50 concentration

Compound	Half-life (transport current recovery) (GlyT2 Y430L mutant; [1])	Recovery at 30 Min (GlyT2 Y430L mutant; [1])	Half-life (transport current recovery) (GlyT2 T512A mutant; T512A)	Recovery at 30 Min (GlyT2 T512A mutant; T512A)	Increase in recovery of current 30 min after application, vs WT (GlyT2 Y430L mutant) [%]	Increase in recovery of current 30 min after application, vs WT (GlyT2 T512A mutant; T512A) [%]	Increase of recovery after 30 min compared to WT (GlyT2 T512A mutant; T512A vs WT) [fold]
CCCCCCCC/C=C\CCCCCCCC(=O)N[C@@H](Cc1c[nH]c2ccccc12)C(=O)O [Oleoyl-L-Tryptophan, oleoyl-L-tryptophan]	No Recovery	No Recovery	No Recovery	No Recovery			
CCCCCCCC/C=C\CCCCCCCC(=O)N[C@@H](CC(C)C)C(=O)O [Oleoyl-L-Leucine, oleoyl-L-leucine]		67.9 ± 2.3 %	1.7 ± 0.3 min	76.2 ± 4.1 %	16.8	25.1	
CCCCCCCC/C=C\CCCCCCCC(=O)O[C@H](CC(=O)[O-])C[N+](C)(C)C [Oleoyl-L-Carnitine, oleoyl-L-carnitine]		80.6%		79.4%			1.8
CCCCCCCC/C=C\CCCCCCCC(=O)N[C@@H](CCCCN)C(=O)O [Oleoyl-L-Lysine, oleoyl-L-lysine]		72.5 ± 2.1 %		63.5 ± 2.0%	17.4		

Reference: PMC9873984, “Membrane cholesterol regulates inhibition and substrate transport by the glycine transporter, GlyT2” (Life Science Alliance, 2023)
